The results in this text go back to patent US10138242B2, “Pyrazolopyridine derivatives and their use in therapy” (HELMHOLTZ ZENTRUM MUENCHEN—DEUTSCHES FORSCHUNGSZENTRUM FUER …, priority 2015, dated 2018).

Molecules are shown by their SMILES. pIC50: −log10 of the molar value. Read-outs that look alike come from different tables or passages of the source.

Test [1] has as its system T. brucei brucei bloodstream form parasites (strain Lister 427). Nature of the test: Antitrypanosomal activity assay (resazurin; FIG. 2). To be noted: Trypanosoma brucei; 66 h + 6 h resazurin. It counts as cell-based. The procedure: (A) The trypanosoma cell count and growth were evaluated at different doses of compounds of the invention.
Antitrypanosomal activity was tested on T. brucei brucei bloodstream from parasites (strain—Lister 427, VATMITat 1.2). Stock solutions of compounds (50 mM) were prepared in DMSO. Two fold serial dilutions of each compound (10 wells in each row) were prepared in 96 well plates in HMI111 medium (100 μl/well; quadruplicates; cf. also Hirumi et al., J. Parasitol. 75 (1989), 985-989). One well without compound, and one well with media alone were included in each row. […] The plates were incubated for 66 hours at 37° C. in the incubator with 5% CO2. 20 μl resazurin (Sigma, 0.125 mg/ml in Hanks Balanced Salt Solution) was added to all wells and the plate was further incubated for 6 hours. Change in color of resazurin (blue to pink) by living cells was measured with a 96 well plate reader (excitation at 530 nm, emission at 585 nm, filter cut-off: 570 nm). Percent inhibition values were calculated by setting the well without compound to “0% inhibition”.

Test [2] has as its target PEX5-PEX14 complex (biotin-coupled PEX5 peptide, His-tagged T. brucei PEX14) (Trypanosoma brucei brucei, UniProt Q38CL4). Nature of the test: biochemical. The format is binding. To be noted: 30 nM PEX5, 30 nM PEX14, quadruplicate. An excerpt:
The assay uses two types of beads: donor beads are coupled with streptavidin, and acceptor beads are coupled with an anti His-tag antibody. Upon excitation with light of a wavelength of 680 nm the donor beads produce reactive oxygen species that travel in solution only for a limited distance. If the acceptor beads are within that travel distance, it will absorb the reactive oxygen and emit light in the range of 520-620 nm. […] Thus, PEX5-PEX14 complex dissociation by a ligand caused decrease in light emission as the donor and acceptor beads were separated. Typically, we used 30 nM PEX5, 30 nM PEX14 and bead concentrations of 5 μg/mL. The PEX5-PEX14 complex was incubated with varying concentrations of inhibitor for 1 hour. Next, the beads were added and the system allowed to equilibrate for another hour. The raw data were fitted to four parameter sigmoidal curves by Origin software and EC50 values calculated. Each measurement was performed in quadruplicate and every experiment was accompanied with blank and reference samples (using non-biotynylated PEX5 peptide as a binding competitor).

Where [3] appears, read: read-out: AlphaScreen EC50 [μM] (±SD).

PEX5-PEX14 complex (biotin-coupled PEX5 peptide, His-tagged T. brucei PEX14), sequence (Q38CL4 1-366, one chain of several): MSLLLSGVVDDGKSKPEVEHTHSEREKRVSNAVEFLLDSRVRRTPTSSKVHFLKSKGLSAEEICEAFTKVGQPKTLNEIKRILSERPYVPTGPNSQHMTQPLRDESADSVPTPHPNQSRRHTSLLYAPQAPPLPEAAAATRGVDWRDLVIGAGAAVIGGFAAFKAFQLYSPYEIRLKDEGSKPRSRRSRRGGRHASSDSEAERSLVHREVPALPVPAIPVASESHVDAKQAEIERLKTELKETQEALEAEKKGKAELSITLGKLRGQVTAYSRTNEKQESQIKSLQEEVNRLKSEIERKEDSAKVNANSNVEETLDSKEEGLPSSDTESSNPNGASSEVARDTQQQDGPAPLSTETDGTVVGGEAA

As for `NC(=O)Cn1nc(C(=O)NCc2ccccc2)c2c1CCN(Cc1c[nH]c3ccccc13)C2` [Compound 4], in test [1], the pIC50 was 4.29. Also, the half-maximal effective concentration (EC50) in test [2] (setting [3]) was determined as 1380 µM.
For `COc1ccc(CN2CCc3[nH]nc(C(=O)NCc4cccc5ccccc45)c3C2)c2ccccc12` [Compound 5] the same measures were 5.47 and 16.5 µM.
As for `O=C(NCc1ccccc1)c1nn(-c2ccccc2)c2c1CN(Cc1c[nH]c3ccccc13)CC2` [Compound 6], the pIC50 in test [1] is 5.10. Moreover, in test [2] (setting [3]), the EC50 was 18.3 µM.
For `Cn1nc(C(=O)NCc2ccccc2)c2c1CCN(Cc1ccccc1)C2` [Compound 7] the same measures were 4.35 and 4530 µM.
For `Cn1nc(C(=O)NCc2ccccc2)c2c1CCN(Cc1ccc(-c3ccccc3)cc1)C2` [Compound 9], in that order: 5.17 and 27.8 µM.
For `Cn1nc(C(=O)NCc2ccccc2)c2c1CCN(Cc1cccc(-c3ccccc3)c1)C2` [Compound 10] the same measures were 5.13 and 33.6 µM.
Consider `Cn1nc(C(=O)NCc2ccccc2)c2c1CCN(Cc1c[nH]c3cc(OCc4ccccc4)ccc13)C2` [Compound 11], for which the pIC50 in test [1] is 5.96. For the same compound, in test [2] (setting [3]), the EC50 came out at 22.1 µM.
As to `Cn1nc(C(=O)NCc2ccccc2)c2c1CCN(Cc1cccc3ccccc13)C2` [Compound 12], the negative-log IC50 (pIC50) in test [1] is 4.92.
Consider `COc1ccc(CN2CCc3c(c(C(=O)NCc4cccc5ccccc45)nn3CCN3CCOCC3)C2)c2ccccc12` [Compound 13], for which, in test [1], the pIC50 is 5.45. Besides, in test [2] (setting [3]), the EC50 is 6.72 µM.
For `COc1ccc(CN2CCc3c(c(C(=O)NCc4cccc5ccccc45)nn3-c3cnccn3)C2)c2ccccc12` [Compound 14], in that order: 5.44 and 11.9 µM.
For the compound `COc1ccc(CN2CCc3c(c(C(=O)NCc4cccc5ccccc45)nn3C3CN(C(=O)C(C)(C)C)C3)C2)c2ccccc12` [Compound 15], in test [1], the negative-log IC50 (pIC50) was 5.83. The EC50 in test [2] (setting [3]) came out at 7.92 µM.
For `COc1ccc(CN2CCc3c(c(C(=O)NCc4cccc5ccccc45)nn3C3CCCC3)C2)c2ccccc12` [Compound 16] the same measures were 5.63 and 10.6 µM.
For `COc1ccc(CN2CCc3c(c(C(=O)NCc4cccc5ccccc45)nn3Cc3ccccc3)C2)c2ccccc12` [Compound 17] the same measures were 5.59 and 10.5 µM.
For `COc1ccc(CN2CCc3c(c(C(=O)NCc4cccc5ccccc45)nn3C3CCC3)C2)c2ccccc12` [Compound 18] the same measures were 5.73 and 11.1 µM.
In the case of `CCc1ccc(CN2CCc3c(c(C(=O)NCc4ccccc4)nn3CCO)C2)cc1` [Compound 23], the half-maximal effective concentration (EC50) in test [2] (setting [3]) was determined as 133 µM.
Turning to `O=C(NCc1ccccc1)c1nn(CCO)c2c1CN(Cc1ccc(OC(F)(F)F)cc1)CC2` [Compound 24], the pIC50 in test [1] is 4.60. Moreover, in test [2] (setting [3]), the half-maximal effective concentration (EC50) stood at 80.4 µM.
For `O=C(NCc1ccccc1)c1nn(CCO)c2c1CN(Cc1ccn(-c3ccccc3)c1)CC2` [Compound 27], in that order: 4.41 and 196 µM.
As for `COC(=O)c1cccc2c(CN3CCc4c(c(C(=O)NCc5ccccc5)nn4CCO)C3)c[nH]c12` [Compound 28], the concentration giving a half-maximal response (EC50) in test [2] (setting [3]) stood at 155 µM.
On the same count and under the same terms, as for `CC(=O)c1ccc(CN2CCc3c(c(C(=O)NCc4ccccc4)nn3CCO)C2)cc1` [Compound 29], the figure is 222 µM.
For the compound `O=C(NCc1ccccc1)c1nn(CCO)c2c1CN(Cc1cc3ccccc3c3ccccc13)CC2` [Compound 30], the pIC50 in test [1] was 5.18. In addition, the concentration giving a half-maximal response (EC50) in test [2] (AlphaScreen EC50 [μM] (±SD)) was 29.8 µM.
Turning to `Cn1nc(C(=O)NCc2ccc3ccccc3c2)c2c1CCN(Cc1c[nH]c3ccccc13)C2` [Compound 31], in test [2] (setting [3]), the EC50 amounted to 35.2 µM.
Same read-out and setting: as for `Cn1nc(C(=O)NCc2cccc3ccccc23)c2c1CCN(Cc1cccc3ccccc13)C2` [Compound 33], the figure is 41.8 µM.
As for `COc1ccc(CN2CCc3c(c(C(=O)NCc4cccc5ccccc45)nn3-c3ccccc3)C2)c2ccccc12` [Compound 37], the negative-log IC50 (pIC50) in test [1] is 5.46. For the same compound, the concentration giving a half-maximal response (EC50) in test [2] (setting [3]) was 7.61 µM.
For `O=C(NCc1cccc2ccccc12)c1nn(CCO)c2c1CN(Cc1ccc(-c3ccccc3)cc1)CC2` [Compound 38] the same measures were 5.43 and 10.4 µM.
In the case of `Cc1nc2sccn2c1CN1CCc2c(c(C(=O)NCc3ccccc3)nn2CCO)C1` [Compound 63], in test [2] (setting [3]), the half-maximal effective concentration (EC50) was 171 µM.
The same measure, in the same setting: in the case of `O=C(NCc1ccccc1)c1nn(CCO)c2c1CN(CC1=CC(=O)C3C=C(Cl)C=CC3O1)CC2` (stereo not drawn) [Compound 64] it was 132 µM; in that of `CC(NC(=O)c1nn(CCO)c2c1CN(Cc1cnn(-c3ccccc3)c1)CC2)c1ccccc1` (stereo not drawn) [Compound 65], 112 µM; in that of `CC(NC(=O)c1nn(CCO)c2c1CN(Cc1ccc3ccoc3c1)CC2)c1ccccc1` (stereo not drawn) [Compound 66], 147 µM.
On the same count and under the same terms, in the case of `O=C(c1nn(Cc2ccccn2)c2c1CN(Cc1ccccc1)CC2)N1CCc2ccccc2C1` [Compound 67] it was 74.3 µM.
On the same count and under the same terms, in the case of `O=C(NCc1ccccc1)c1nn(CCO)c2c1CN(Cc1ccc3c(c1)OC=CO3)CC2` [Compound 68] it was 159 µM; in that of `CC(NC(=O)c1nn(CCO)c2c1CN(Cc1cccc3c1OCO3)CC2)c1ccccc1` (stereo not drawn) [Compound 69], 151 µM.
In the case of `Cn1nc(C(=O)NCc2ccccc2)c2c1CCN(Cc1noc3c1CCCC3)C2` [Compound 70], the EC50 in test [2] (setting [3]) was 9.69 µM.
In the case of `CCc1ccc(CN2CCc3c(c(C(=O)NCc4ccccc4)nn3CCO)C2)cc1` [Compound 71], the EC50 in test [2] (setting [3]) came to 150 µM.
On the same count and under the same terms, in the case of `O=C(NCc1ccccc1)c1nn(CCO)c2c1CN(Cc1ccccc1C(F)(F)F)CC2` [Compound 72] it was 223 µM; in that of `O=C(CC1CC1)N1CCc2c(c(C(=O)N3CCc4ccccc4C3)nn2Cc2ccccn2)C1` [Compound 73], 220 µM.
On the same count and under the same terms, as for `O=C(NCc1ccccc1)c1nn(CCO)c2c1CN(Cc1ccccc1-c1ccco1)CC2` [Compound 74], the figure is 78.3 µM.
The same measure, in the same setting: as for `COc1cc(CN2CCc3c(c(C(=O)NCc4ccccc4)nn3CCO)C2)cc2c1OCO2` [Compound 75], the figure is 94.9 µM.
For `O=C(NCc1ccccc1)c1nn(CCO)c2c1CN(Cc1cccc(OC(F)F)c1)CC2` [Compound 76], the EC50 in test [2] (setting [3]) came to 148 µM.
The same measure, in the same setting: as for `C=C(C)C1CC=C(CN2CCc3c(c(C(=O)NCc4ccccc4)nn3CCO)C2)CC1` (stereo not drawn) [Compound 77], the figure is 142 µM; as for `O=C(NCc1ccccc1)c1nn(CCO)c2c1CN(Cc1ccc(-c3ccccc3)cc1)CC2` [Compound 78], 68.8 µM.
Still for that read-out and setting: in the case of `C=CCn1nc(C(=O)NCc2ccccc2)c2c1CCN(Cc1ccc3ncccc3c1)C2` [Compound 79] it was 95.4 µM.
Regarding `Cc1ccccc1-c1ccc(CN2CCc3c(c(C(=O)NCc4ccccc4)nn3CCO)C2)cc1` [Compound 80], the concentration for a half-maximal effect (EC50) in test [2] (setting [3]) came out at 45.9 µM.
Same read-out and setting: in the case of `O=C(NCc1ccccc1)c1nn(CCO)c2c1CN(CC(c1ccccc1)c1ccccc1)CC2` [Compound 81] it was 74.9 µM.
On the same count and under the same terms, in the case of `O=C(NCc1ccccc1)c1nn(CCO)c2c1CN(Cc1cnn(-c3ccccc3)c1)CC2` [Compound 82] it was 149 µM; in that of `O=C(NCc1ccccc1)c1nn(CCO)c2c1CN(Cc1cccn1-c1ccccn1)CC2` [Compound 83], 132 µM.
The same measure, in the same setting: as for `CC(NC(=O)c1nn(CCO)c2c1CN(CC1Cc3ccccc3CN1C)CC2)c1ccccc1` (stereo not drawn) [Compound 86], the figure is 169 µM; as for `CC(NC(=O)c1nn(CCO)c2c1CN(C(=O)c1ncc3sccn13)CC2)c1ccccc1` (stereo not drawn) [Compound 87], 230 µM.
Consider `COC(=O)c1ccc2c(CN3CCc4c(c(C(=O)NCc5cccc6ccccc56)nn4CCO)C3)c[nH]c2c1` [Compound 108], for which the EC50 in test [2] (setting [3]) is 38.7 µM.
On to `O=C(NCc1cccc2ccccc12)c1nn(CCO)c2c1CN(Cc1c[nH]c3cc(OCc4ccccc4)ccc13)CC2` [Compound 113], for which the 50% effective concentration (EC50) in test [2] (setting [3]) was 72.1 µM.
Consider `O=C(NCc1cccc2ccccc12)c1nn(CCO)c2c1CN(CCc1ccccc1)CC2` [Compound 116], for which the EC50 in test [2] (setting [3]) was 230 µM.
Take `O=C(NCc1cccc2ccccc12)c1nn(CCO)c2c1CN(Cc1c[nH]c3c(C(=O)O)cccc13)CC2` [Compound 117]: the EC50 in test [2] (setting [3]) was 391 µM.
Same read-out and setting: as for `Cc1ccc(CCN2CCc3c(c(C(=O)NCc4cccc5ccccc45)nn3CCO)C2)cc1` [Compound 118], the figure is 632 µM.
Consider `CCOC(=O)CN(Cc1cccc2ccccc12)C(=O)c1nn(CCO)c2c1CN(Cc1ccc(OC)c3ccccc13)CC2` [Compound 121], for which the pIC50 in test [1] was 5.30.
On the same count and under the same terms, as for `COc1ccc(CN2CCc3c(c(C(=O)NCc4cccc5ccccc45)nn3CCC(C)(C)C)C2)c2ccccc12` [Compound 124], the figure is 5.46.
